Test results taken from patent publication US10259808B2 (Genentech, Inc., priority 2015, dated 2019).

target: T1, RORc ligand binding domain (Homo sapiens, UniProt P51449); assay: In vitro RORc ligand binding assay (25-[3H]hydroxycholesterol displacement)
T1 sequence (P51449 269-508 limits assumed): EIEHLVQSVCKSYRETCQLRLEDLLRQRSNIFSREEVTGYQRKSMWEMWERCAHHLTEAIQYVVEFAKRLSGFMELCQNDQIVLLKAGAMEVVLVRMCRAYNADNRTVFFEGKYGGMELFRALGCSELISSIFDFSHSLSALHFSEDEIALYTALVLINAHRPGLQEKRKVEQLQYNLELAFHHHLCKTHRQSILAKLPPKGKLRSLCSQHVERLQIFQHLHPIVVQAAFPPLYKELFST

Row | IC50 | Structure (SMILES)
1 | 3.4 nM | C[C@H]1CC[C@H](c2ccccc2)S(=O)(=O)N1Cc1cc(F)c([C@]2(c3n[nH]c(=O)o3)C[C@](C)(O)C2)cc1F [Example 128, trans-5-[1-[2,5-difluoro-4-[[(3S,6R)-3-methyl-1,1-dioxo-6-phenyl-thiazinan-2-yl]methyl]phenyl]-3-hydroxy-3-methyl-cyclobutyl]-3H-1,3,4-oxadiazol-2-one]
2 | 12.8 nM | C[C@H]1CC[C@H](c2ccccc2)S(=O)(=O)N1Cc1cc(F)c(C2(c3nnc(N)o3)CC(F)(F)C2)cc1F [Example 132, 5-[1-[2,5-difluoro-4-[[(3S,6R)-3-methyl-1,1-dioxo-6-phenyl-thiazinan-2-yl]methyl]phenyl]-3,3-difluoro-cyclobutyl]-1,3,4-oxadiazol-2-amine]
3 | 201 nM | Cc1nn(C)cc1CNC1(c2cc(F)c(CN3[C@@H](C)CC[C@H](c4ccccc4)S3(=O)=O)cc2F)COC1 [Example 135, 3-[2,5-difluoro-4-[[(3S,6R)-3-methyl-1,1-dioxo-6-phenyl-thiazinan-2-yl]methyl]phenyl]-N-[(1,3-dimethylpyrazol-4-yl)methyl]oxetan-3-amine]
4 | 23.9 nM | C[C@H]1CC[C@H](c2ccccc2)S(=O)(=O)N1Cc1cc(F)c(C2(NCC3CCOC3)COC2)cc1F (stereo partly drawn) [Example 136, 3-[2,5-difluoro-4-[[(3S,6R)-3-methyl-1,1-dioxo-6-phenyl-thiazinan-2-yl]methyl]phenyl]-N-(tetrahydrofuran-3-ylmethyl)oxetan-3-amine]
5 | 89.4 nM | C[C@H]1CC[C@H](c2ccccc2)S(=O)(=O)N1Cc1cc(F)c(C2(NCc3ccnn3C)COC2)cc1F [Example 137, 3-[2,5-difluoro-4-[[(3S,6R)-3-methyl-1,1-dioxo-6-phenyl-thiazinan-2-yl]methyl]phenyl]-N-[(2-methylpyrazol-3-yl)methyl]oxetan-3-amine]
6 | 69.4 nM | C[C@H]1CC[C@H](c2ccccc2)S(=O)(=O)N1Cc1cc(F)c(C2(NCc3cnn(C)c3)COC2)cc1F [Example 138, 3-[2,5-difluoro-4-[[(3S,6R)-3-methyl-1,1-dioxo-6-phenyl-thiazinan-2-yl]methyl]phenyl]-N-[(1-methylpyrazol-4-yl)methyl]oxetan-3-amine]
7 | 3.9 nM | C[C@H]1CC[C@H](c2ccccc2)S(=O)(=O)N1Cc1cc(F)c([C@]2(c3n[nH]c(=O)o3)C[C@](C)(F)C2)cc1F [Example 139, trans 5-[1-[2,5-difluoro-4-[[(3S,6R)-3-methyl-1,1-dioxo-6-phenyl-thiazinan-2-yl]methyl]phenyl]-3-fluoro-3-methyl-cyclobutyl]-3H-1,3,4-oxadiazol-2-one]
8 | 12.8 nM | C[C@H]1CC[C@H](c2ccccc2)S(=O)(=O)N1Cc1cc(F)c(C2(c3nn(C)c(=O)o3)CCOCC2)cc1F [Example 140, 5-[4-[2,5-difluoro-4-[[(3S,6R)-3-methyl-1,1-dioxo-6-phenyl-thiazinan-2-yl]methyl]phenyl]tetrahydropyran-4-yl]-3-methyl-1,3,4-oxadiazol-2-one]
9 | 9.2 nM | C[C@H]1CC[C@H](c2ccccc2)S(=O)(=O)N1Cc1cc(F)c([C@]2(c3n[nH]c(=O)o3)C[C@](O)(C3CC3)C2)cc1F [Example 141, cis 5-[3-cyclopropyl-1-[2,5-difluoro-4-[[(3S,6R)-3-methyl-1,1-dioxo-6-phenyl-thiazinan-2-yl]methyl]phenyl]-3-hydroxy-cyclobutyl]-3H-1,3,4-oxadiazol-2-one]
10 | 4.3 nM | C[C@H]1CC[C@H](c2ccccc2)S(=O)(=O)N1Cc1cc(F)c([C@]2(c3n[nH]c(=O)o3)C[C@@](O)(C3CC3)C2)cc1F [Example 142, trans 5-[3-cyclopropyl-1-[2,5-difluoro-4-[[(3S,6R)-3-methyl-1,1-dioxo-6-phenyl-thiazinan-2-yl]methyl]phenyl]-3-hydroxy-cyclobutyl]-3H-1,3,4-oxadiazol-2-one]
11 | 151 nM | C[C@H]1CC[C@@H](c2ccccc2)S(=O)(=O)N1Cc1cc(F)c(C2(c3n[nH]c(=O)o3)CCC2)cc1F [Example 143, 5-[1-[2,5-difluoro-4-[[(3S,6S)-3-methyl-1,1-dioxo-6-phenyl-thiazinan-2-yl]methyl]phenyl]cyclobutyl]-3H-1,3,4-oxadiazol-2-one]
12 | 9.4 nM | C[C@H]1CC[C@H](c2ccccc2)S(=O)(=O)N1Cc1cc(F)c(C2(c3n[nH]c(=O)o3)CCC2)cc1F [Example 144, 5-[1-[2,5-difluoro-4-[[(3S,6R)-3-methyl-1,1-dioxo-6-phenyl-thiazinan-2-yl]methyl]phenyl]cyclobutyl]-3H-1,3,4-oxadiazol-2-one]
13 | 7 nM | C[C@H]1CC[C@H](c2ccccc2)S(=O)(=O)N1Cc1cc(F)c([C@]2(c3nnc[nH]3)C[C@](C)(O)C2)cc1F [Example 145, trans 3-[2,5-difluoro-4-[[(3S,6R)-3-methyl-1,1-dioxo-6-phenyl-thiazinan-2-yl]methyl]phenyl]-1-methyl-3-(4H-1,2,4-triazol-3-yl)cyclobutanol]
14 | 17.6 nM | C[C@H]1CC[C@H](c2ccccc2)S(=O)(=O)N1Cc1cc(F)c([C@]2(c3nn(C)c(=O)o3)C[C@@H](O)C2)cc1F [Example 146, cis 5-[1-[2,5-difluoro-4-[[(3S,6R)-3-methyl-1,1-dioxo-6-phenyl-thiazinan-2-yl]methyl]phenyl]-3-hydroxy-cyclobutyl]-3-methyl-1,3,4-oxadiazol-2-one]
15 | 4.6 nM | C[C@H]1CC[C@H](c2ccccc2)S(=O)(=O)N1Cc1cc(F)c([C@]2(c3nn(C)c(=O)o3)C[C@H](O)C2)cc1F [Example 147, trans 5-[1-[2,5-difluoro-4-[[(3S,6R)-3-methyl-1,1-dioxo-6-phenyl-thiazinan-2-yl]methyl]phenyl]-3-hydroxy-cyclobutyl]-3-methyl-1,3,4-oxadiazol-2-one]
16 | 5.3 nM | C[C@H]1CC[C@H](c2ccccc2)S(=O)(=O)N1Cc1cc(F)c([C@]2(c3n[nH]c(=O)o3)C[C@@](O)(C(F)(F)F)C2)cc1F [Example 149, trans 5-[1-[2,5-difluoro-4-[[(3S,6R)-3-methyl-1,1-dioxo-6-phenyl-thiazinan-2-yl]methyl]phenyl]-3-hydroxy-3-(trifluoromethyl)cyclobutyl]-3H-1,3,4-oxadiazol-2-one]
17 | 39 nM | C[C@H]1CC[C@H](c2ccccc2)S(=O)(=O)N1Cc1cc(F)c([C@]2(c3n[nH]c(=O)o3)C[C@@H]2CO)cc1F [Example 150, 5-[(1S,2S)-1-[2,5-difluoro-4-[[(3S,6R)-3-mcthyl-1,1-dioxo-6-phenyl-thiazinan-2-yl]methyl]phenyl]-2-(hydroxymethyl)cyclopropyl]-3H-1,3,4-oxadiazol-2-one]
18 | 6.9 nM | C[C@H]1CC[C@H](c2ccccc2)S(=O)(=O)N1Cc1cc(F)c([C@]2(c3nn(C)c(=O)o3)C[C@](C)(O)C2)cc1F [Example 151, trans 5-[1-[2,5-difluoro-4-[[(3S,6R)-3-methyl-1,1-dioxo-6-phenyl-thiazinan-2-yl]methyl]phenyl]-3-hydroxy-3-methyl-cyclobutyl]-3-methyl-1,3,4-oxadiazol-2-one]
19 | 7.1 nM | C[C@H]1CC[C@H](c2ccccc2)S(=O)(=O)N1Cc1cc(F)c([C@]2(c3n[nH]c(=O)o3)C[C@@H](CC#N)C2)cc1F [Example 152, cis 2-[3-[2,5-difluoro-4-[[(3S,6R)-3-methyl-1,1-dioxo-6-phenyl-thiazinan-2-yl]methyl]phenyl]-3-(2-oxo-3H-1,3,4-oxadiazol-5-yl)cyclobutyl]acetonitrile]
